# Assay results: patent publication US20260209152A1, “Substituted Hydroxystilbene Compounds and Derivatives, Synthesis and Uses Thereof” (Kynan Duke IP, LLC, priority 2019, published 2026)
# Read-outs that look alike come from different tables or passages of the source.
# Columns and labels:
# Assay in all cases: CellTiter Glo cell viability assay
# Type in all cases: cell-based, human
# Kidney HTB-45 = details: for IC50: Homo sapiens, 72 h, 3 Days of treatment, 18 2-fold dilutions 5-0.00003 μM
# Procedure, shortened: (§1)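 Cells seeded at 1.7*10^3/well in quadruplicate; compounds at 18 two-fold dilutions from 5 μM (0.000038146-5 μM), or at 1, 2, 5, 10 and 20 μM. CellTiter Glo luminescence read on days 1, 3 and 5 after treatment. IC50 by nonlinear regression of luminescence versus log dose.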
# Kidney SK-NEP-1 = details: for IC50: Homo sapiens, SK-NEP-1, 72 h, 3 Days of treatment, 18 2-fold dilutions 5-0.00003 μM
# Procedure, shortened: as §1
# Pancreatic CFPAC = details: for IC50: Homo sapiens, 72 h, 3 Days of treatment, 18 2-fold dilutions 5-0.00003 μM
# Procedure, shortened: as §1
# Liver JHH-7 = details: for IC50: Homo sapiens, JHH7, 72 h, 3 Days of treatment, 18 2-fold dilutions 5-0.00003 μM
# Procedure, shortened: as §1
# Liver SNU-475 = details: for IC50: Homo sapiens, SNU-475, 72 h, 3 Days of treatment, 18 2-fold dilutions 5-0.00003 μM
# Procedure, shortened: as §1
# Osteosarcomas Hs888.T = details: for IC50: Homo sapiens, 72 h, 3 Days of treatment, 18 2-fold dilutions 5-0.00003 μM
# Procedure, shortened: as §1
# Bladder RT-112 = details: for IC50: Homo sapiens
# Procedure, shortened: as §1
# Rhabomyosarcoma CCL 166 = details: for IC50: Homo sapiens, 72 h, 3 Days of treatment, 18 2-fold dilutions 5-0.00003 μM
# Procedure, shortened: as §1
# Lung NCI-H1048 = details: for IC50: Homo sapiens, NCI-H1048, 72 h, 3 Days of treatment, 18 2-fold dilutions 5-0.00003 μM
# Procedure, shortened: as §1
# [1] = system: Connective Tissue Sarcoma TE 381.T; details: for IC50: Homo sapiens, TE 381.T, 72 h, 3 Days of treatment, 18 2-fold dilutions 5-0.00003 μM
# Procedure, shortened: as §1
# Osteosarcomas T1-73 = details: for IC50: Homo sapiens, 72 h, 3 Days of treatment, 18 2-fold dilutions 5-0.00003 μM
# Procedure, shortened: as §1
# Liposarcoma 94T778 = details: for IC50: Homo sapiens, 72 h, 3 Days of treatment, 18 2-fold dilutions 5-0.00003 μM
# Procedure, shortened: as §1
# Leiomyosarcoma SK-UT-1B = details: for IC50: Homo sapiens, Skut1B, 72 h, 3 Days of treatment, 18 2-fold dilutions 5-0.00003 μM
# Procedure, shortened: as §1
# Kidney 786-O = details: for IC50: Homo sapiens, 786-0, 72 h, 3 Days of treatment, 18 2-fold dilutions 5-0.00003 μM
# Procedure, shortened: as §1
# Colon HCT_116 = details: for IC50: Homo sapiens
# Procedure, shortened: as §1
# Osteosarcomas U2OS = details: for IC50: Homo sapiens, U2OS, 72 h, 3 Days of treatment, 18 2-fold dilutions 5-0.00003 μM
# Procedure, shortened: as §1
# Liposarcoma 93T449 = details: for IC50: Homo sapiens, 72 h, 3 Days of treatment, 18 2-fold dilutions 5-0.00003 μM
# Procedure, shortened: as §1
# Osteosarcomas MG3 = details: for IC50: Homo sapiens, 72 h, 3 Days of treatment, 18 2-fold dilutions 5-0.00003 μM
# Procedure, shortened: as §1
# Bladder 5637 = details: for IC50: Homo sapiens
# Procedure, shortened: as §1
# Pancreatic HPAC = details: for IC50: Homo sapiens, HPAC, 72 h, 3 Days of treatment, 18 2-fold dilutions 5-0.00003 μM
# Procedure, shortened: as §1
# [2] = system: Osteosarcomas HOS_CRL_1543; details: for IC50: Homo sapiens, 72 h, 3 Days of treatment, 18 2-fold dilutions 5-0.00003 μM
# Procedure, shortened: as §1
# Tongue SCC-15 = details: for IC50: Homo sapiens, SCC-15, 72 h, 3 Days of treatment, 18 2-fold dilutions 5-0.00003 μM
# Procedure, shortened: as §1
# Lung NCI-H596 = details: for IC50: Homo sapiens, NCI-H596, 72 h, 3 Days of treatment, 18 2-fold dilutions 5-0.00003 μM
# Procedure, shortened: as §1
# Kidney ACHN = details: for IC50: Homo sapiens, ACHN
# Procedure, shortened: as §1
# [3] = IC50 of 1 [KYN-001] vs 8 [KYN-119], 3 Days
# [4] = RT-112, 72 h, 3 Days of treatment, 18 2-fold dilutions 5-0.00003 μM, read-out: Average IC50
# [5] = RT-112, 72 h, Table 4: 3 Days of treatment, 18 2-fold dilutions 5-0.00003 μM, Average (1, 8) or single Exp A-D, read-out: IC50
# [6] = RT-112, 120 h, Day 5 upon drug treatment, 10 dosages 0.0001-20 μM (Compound 8: 18 dosages 0.000038146 to 5 μM), read-out: IC50
# [7] = HCT-116, 72 h, 3 Days of treatment, 18 2-fold dilutions 5-0.00003 μM, read-out: Average IC50
# [8] = HCT-116, 120 h, Day 5 upon drug treatment, 10 dosages 0.0001-20 μM (Compound 8: 18 dosages 0.000038146 to 5 μM), read-out: IC50
# [9] = 72 h, 3 Days of treatment, 18 2-fold dilutions 5-0.00003 μM, read-out: Average IC50
# [10] = 120 h, Day 5 upon drug treatment, 10 dosages 0.0001-20 μM (Compound 8: 18 dosages 0.000038146 to 5 μM), read-out: IC50
# [11] = 72 h, Table 4: 3 Days of treatment, 18 2-fold dilutions 5-0.00003 μM, Average (1, 8) or single Exp A-D, read-out: IC50
structure (smiles),measurement,setting,value
"CCOc1cc(O)cc(/C=C/c2ccc(O)c(OC)c2)c1CC=C(C)C [Compound 8, (E)-3-Ethoxy-5-(4-hydroxy-3-methoxystyryl)-4-(3-methylbut-2-en-1-yl)phenol]",IC50,Kidney HTB-45,463 nM
same,Fold IC50,Kidney HTB-45; [3],3.7
same,IC50,Kidney SK-NEP-1,17.8 nM
same,Fold IC50,Kidney SK-NEP-1; [3],8.9
same,IC50,Pancreatic CFPAC,82.4 nM
same,Fold IC50,Pancreatic CFPAC; [3],6.0
same,IC50,Liver JHH-7,519 nM
same,Fold IC50,Liver JHH-7; [3],1.3
same,IC50,Liver SNU-475,32.4 nM
same,Fold IC50,Liver SNU-475; [3],7.4
same,IC50,Osteosarcomas Hs888.T,26.1 nM
same,Fold IC50,Osteosarcomas Hs888.T; [3],8.1
same,IC50,Bladder RT-112; [4],3.63 nM
same,IC50,Bladder RT-112; [5],4.09 nM
same,IC50,Bladder RT-112; [6],~5.65 nM
same,Fold IC50,Bladder RT-112; [3],15
same,IC50,Rhabomyosarcoma CCL 166,6.05 nM
same,Fold IC50,Rhabomyosarcoma CCL 166; [3],16
same,IC50,Lung NCI-H1048,14.5 nM
same,Fold IC50,Lung NCI-H1048; [3],6.3
same,IC50,[1],7.5 nM
same,Fold IC50,[1]; [3],4.8
same,IC50,Osteosarcomas T1-73,3.93 nM
same,Fold IC50,Osteosarcomas T1-73; [3],205
same,IC50,Liposarcoma 94T778,25.7 nM
same,Fold IC50,Liposarcoma 94T778; [3],3.3
same,IC50,Leiomyosarcoma SK-UT-1B,6.39 nM
same,Fold IC50,Leiomyosarcoma SK-UT-1B; [3],3.5
same,IC50,Kidney 786-O,64.8 nM
same,Fold IC50,Kidney 786-O; [3],5.1
same,IC50,Colon HCT_116; [7],35.5 nM
same,IC50,Colon HCT_116; [8],28 nM
same,Fold IC50,Colon HCT_116; [3],12
same,IC50,Osteosarcomas U2OS,36.8 nM
same,Fold IC50,Osteosarcomas U2OS; [3],8.8
same,IC50,Liposarcoma 93T449,15.1 nM
same,Fold IC50,Liposarcoma 93T449; [3],3.7
same,IC50,Osteosarcomas MG3,6.88 nM
same,Fold IC50,Osteosarcomas MG3; [3],5.2
same,IC50,Bladder 5637; [9],3.91 nM
same,IC50,Bladder 5637; [10],~9.43 nM
same,Fold IC50,Bladder 5637; [3],8.9
same,IC50,Pancreatic HPAC,1970 nM
same,Fold IC50,Pancreatic HPAC; [3],2.5
same,IC50,[2],32 nM
same,Fold IC50,[2]; [3],11
same,IC50,Tongue SCC-15,14.9 nM
same,Fold IC50,Tongue SCC-15; [3],1.1
same,IC50,Lung NCI-H596,115 nM
same,Fold IC50,Lung NCI-H596; [3],2.6
same,IC50,Kidney ACHN; [9],10.4 nM
same,IC50,Kidney ACHN; [11],9.8 nM
same,IC50,Kidney ACHN; [10],~0.0135 nM
same,Fold IC50,Kidney ACHN; [3],48
"COc1cc(/C=C/c2cc(O)cc(OC)c2CC=C(C)C)ccc1O [Compound 1, (E)-3-(4-hydroxy-3-methoxystyryl)-5-methoxy-4-(3-methylbut-2-en-1-yl)phenol]",IC50,Kidney HTB-45,1730 nM
same,IC50,Kidney SK-NEP-1,158 nM
same,IC50,Pancreatic CFPAC,492 nM
same,IC50,Liver JHH-7,696 nM
same,IC50,Liver SNU-475,239 nM
same,IC50,Osteosarcomas Hs888.T,210 nM
same,IC50,Bladder RT-112; [4],52.9 nM
same,IC50,"Bladder RT-112; RT-112, 72 h, Day 3 upon drug treatment, 10 dosages 0.0001-20 μM, read-out: IC50",105 nM
same,IC50,Bladder RT-112; [5],27 nM
same,IC50,Bladder RT-112; [6],28.7 nM
same,IC50,Rhabomyosarcoma CCL 166,96 nM
same,IC50,Lung NCI-H1048,91.7 nM
same,IC50,[1],35.7 nM
same,IC50,Osteosarcomas T1-73,804 nM
same,IC50,Liposarcoma 94T778,84.5 nM
same,IC50,Leiomyosarcoma SK-UT-1B,22.6 nM
same,IC50,Kidney 786-O,334 nM
same,IC50,Colon HCT_116; [7],416 nM
same,IC50,Colon HCT_116; [8],165 nM
same,IC50,Osteosarcomas U2OS,325 nM
same,IC50,Liposarcoma 93T449,55.5 nM
same,IC50,Osteosarcomas MG3,35.9 nM
same,IC50,Bladder 5637; [9],34.7 nM
same,IC50,Bladder 5637; [10],30.6 nM
same,IC50,Pancreatic HPAC,4990 nM
same,IC50,[2],358 nM
same,IC50,Tongue SCC-15,17 nM
same,IC50,Lung NCI-H596,303 nM
same,IC50,Kidney ACHN; [9],494 nM
same,IC50,Kidney ACHN; [11],496 nM
same,IC50,Kidney ACHN; [10],89.7 nM
